In this experiment the test system is layer V pyramidal neurons. Briefly: Whole cell recordings, layer V prelimbic cortex neurons, WT mice. Format: cell-based, mouse. Particulars: glycine 1 mM. On the procedure: FIGS. 15A-15H. Effect of glycine and taurine on excitability of layer V neurons and membrane properties of layer II/III neurons in wild type and GPR158 knockout mice. A) Representative traces of voltage responses to a 200 pA current ramp injection obtained from layer V pyramidal neurons in WT mice under control conditions and during bath application of glycine (1 mM). B) Quantification of glycine effects on neuronal excitability by number of action potentials fired in response to 200 pA current ramp under control condition and glycine application (n=4 neurons/3 mice). Nonparametric t-test; Wilcoxon test, ns=p>0.05. C) Quantification of glycine effects on neuronal excitability by rheobase current under control condition and glycine application (n=4 neurons/3 mice). Nonparametric t-test; Wilcoxon test, ns=p>0.05. […]
Electrophysiological recordings from layer II-III and layer V neurons of the prelimbic cortex were performed with C57Bl6 mice of either sex aged between 6-12 weeks. […] The Rheobase current was defined as the minimum current necessary to elicit the first AP and changes in neuronal excitability were assessed by counting the number of spikes evoked in response to 1-s depolarizing ramp ranging from 0 to 200 pA with a 20-s intertrial interval. […]

Consider `NCC(=O)O` [glycine], for which the “intrinsic excitability of layer V neurons” value is given as “did not produce any changes”. Also, for the setting “layer V”, the resting membrane potential result is “ns”.

Source of the values: patent US20260376293A1, “METHODS FOR STUDYING GPR158 PHARMACOLOGY AND IDENTIFICATION OF ITS LIGANDS” (UNIVERSITY OF FLORIDA RESEARCH FOUNDATION, INCORPORATED, priority 2022, published 2026).
